Source: ChEMBL document CHEMBL5523692, “Discovery of novel biaryl benzoxazepinones as dual-mode receptor-interacting protein kinase-1 (RIPK1) inhibitors” (Bioorg Med Chem, 2024)
Calls of active or inactive are those of the source. The calls are words filed in the database; no cut-off is given here.

How the values were obtained:
[1] = system: HT-29; assay: Anti-necroptic activity against human HT-29 cells assessed as cell viability pretreated with compound followed by TNF-alpha/Smac mimetic/Z-VAD-FMK stimulation for 16 hrs by Cell Titer Glo assay; format: functional, cell-based
[2] = Cytotoxicity against human HT-29 cells by Cell Titer Glo assay; format: toxicity, cell-based
[3] = system: HT-29; assay: Anti-necroptic activity against human HT-29 cells assessed as cell viability pretreated with compound followed by TNF-alpha/Smac mimetic/Z-VAD-FMK stimulation for 12 hrs by Cell Titer Glo assay; format: functional, cell-based; conditions: dose 0.39-50 nM
[4] = system: HT-29; assay: Anti-necroptic activity against human HT-29 cells assessed as cell viability pretreated with compound followed by TNF-alpha/Cycloheximide/Z-VAD-FMK stimulation for 16 hrs by Cell Titer Glo assay; format: functional, cell-based; conditions: dose 0.39-50 nM
[5] = system: L-292; assay: Anti-necroptic activity against mouse […] cells assessed as cell viability pretreated with compound followed by TNF-alpha/Z-VAD-FMK stimulation for 12 hrs by Cell Titer Glo assay; format: functional, cell-based; conditions: dose 0.078-10 µM
[6] = system: HT-29; assay: Anti-necroptic activity against human HT-29 cells assessed as cell viability upto 10 uM pretreated with compound followed by TNF-alpha/Smac mimetic stimulation for 24 hrs by Cell Titer Glo assay; format: functional, cell-based
[7] = system: HT-29; assay: Anti-necroptic activity against human HT-29 cells assessed as cell viability upto 10 uM pretreated with compound followed by TNF-alpha/Cycloheximide stimulation for 36 hrs by Cell Titer Glo assay; format: functional, cell-based
[8] = biological target: T1, Receptor-interacting serine/threonine-protein kinase 1 (Homo sapiens) (UniProt Q13546); assay: Inhibition of RIPK1 phosphorylation in human HT-29 cells at 10 nM preincubated for 6 hrs followed by TSZ stimulation by Western blot analysis relative to control; format: cell-based
T1 sequence (whole entry): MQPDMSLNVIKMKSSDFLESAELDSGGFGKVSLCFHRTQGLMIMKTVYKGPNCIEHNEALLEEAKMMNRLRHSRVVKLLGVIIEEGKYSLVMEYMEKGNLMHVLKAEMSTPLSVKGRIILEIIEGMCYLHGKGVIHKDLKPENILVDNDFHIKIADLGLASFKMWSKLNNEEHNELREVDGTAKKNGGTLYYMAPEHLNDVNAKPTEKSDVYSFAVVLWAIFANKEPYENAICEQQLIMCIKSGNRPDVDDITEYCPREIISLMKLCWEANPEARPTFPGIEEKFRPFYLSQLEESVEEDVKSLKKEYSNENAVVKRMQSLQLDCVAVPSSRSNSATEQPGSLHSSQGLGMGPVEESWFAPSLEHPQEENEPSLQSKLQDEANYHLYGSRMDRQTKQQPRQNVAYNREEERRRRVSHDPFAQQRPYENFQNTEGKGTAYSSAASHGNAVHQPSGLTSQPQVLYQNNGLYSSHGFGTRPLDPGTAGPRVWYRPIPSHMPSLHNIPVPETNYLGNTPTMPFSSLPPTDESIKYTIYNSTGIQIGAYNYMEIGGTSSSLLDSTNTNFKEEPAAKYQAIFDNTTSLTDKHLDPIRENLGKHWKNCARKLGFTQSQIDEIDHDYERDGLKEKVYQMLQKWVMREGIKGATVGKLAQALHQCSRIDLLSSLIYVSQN

[9] = biological target: T1, Receptor-interacting serine/threonine-protein kinase 1 (Homo sapiens); assay: Inhibition of RIPK1 in human HT-29 cells assessed as decrease in RIPK3 phosphorylation at 10 nM preincubated for 6 hrs followed by TSZ stimulation by Western blot analysis relative to control; format: cell-based
[10] = biological target: T1, Receptor-interacting serine/threonine-protein kinase 1 (Homo sapiens); assay: Inhibition of RIPK1 in human HT-29 cells assessed as decrease in MLKL phosphorylation at 10 nM preincubated for 6 hrs followed by TSZ stimulation by Western blot analysis relative to control; format: cell-based
[11] = biological target: T1, Receptor-interacting serine/threonine-protein kinase 1 (Homo sapiens); assay: Inhibition of RIPK1 phosphorylation in human HT-29 cells assessed as decrease in necrosomes development at 10 nM incubated for 6 hrs by Western blot analysis; format: cell-based
[12] = system: Mus musculus; assay: Anti-necroptic activity in TNF-alpha/Z-VAD-FMK-induced SIRS C57BL/6J mouse model assessed as decrease in hypothermia at 2.5 to 10 mg/kg, po pre-administered via gavage for 1 hr followed by […] of Z-VAD-FMK stimulation for 15 mins and subsequent TNF-alpha stimulation for 45 mins and re-current […] of Z-VAD-FMK stimulation measured after 2 to 3 hrs post- TNF-alpha stimulation; format: functional, organism-based; conditions: dose 2.5-10 mg/kg, time 240-300 min
[13] = system: Mus musculus; assay: Anti-necroptic activity in TNF-alpha/Z-VAD-FMK-induced SIRS C57BL/6J mouse model assessed as survival rate at 2.5 mg/kg, po pre-administered via gavage for 1 hr followed by […] of Z-VAD-FMK stimulation for 15 mins and subsequent TNF-alpha stimulation for 45 mins and re-current […] of Z-VAD-FMK stimulation measured after 4 hrs post- TNF-alpha stimulation relative to control; format: functional; conditions: 6 h, time 360 min
[14] = system: Mus musculus; assay: Anti-necroptic activity in TNF-alpha/Z-VAD-FMK-induced SIRS C57BL/6J mouse model assessed as survival rate at 5 mg/kg, po pre-administered via gavage for 1 hr followed by […] of Z-VAD-FMK stimulation for 15 mins and subsequent TNF-alpha stimulation for 45 mins and re-current […] of Z-VAD-FMK stimulation measured after 4 hrs post- TNF-alpha stimulation relative to control; format: functional; conditions: 6 h, time 360 min
[15] = system: Mus musculus; assay: Anti-necroptic activity in TNF-alpha/Z-VAD-FMK-induced SIRS C57BL/6J mouse model assessed as survival rate at 10 mg/kg, po pre-administered via gavage for 1 hr followed by […] of Z-VAD-FMK stimulation for 15 mins and subsequent TNF-alpha stimulation for 45 mins and re-current […] of Z-VAD-FMK stimulation measured after 4 hrs post- TNF-alpha stimulation relative to control; format: functional; conditions: 6 h, time 360 min
[16] = system: Mus musculus; assay: Anti-necroptic activity in TNF-alpha/Z-VAD-FMK-induced SIRS C57BL/6J mouse model assessed as decrease in serum IL-1beta level at 2.5 to 10 mg/kg, po pre-administered via gavage for 1 hr followed by […] of Z-VAD-FMK stimulation for 15 mins and subsequent TNF-alpha stimulation for 45 mins and re-current […] of Z-VAD-FMK stimulation measured after 4 hrs post- TNF-alpha stimulation by ELISA; format: functional, organism-based; conditions: dose 2.5-10 mg/kg, time 360.0 min
[17] = system: Mus musculus; assay: Anti-necroptic activity in TNF-alpha/Z-VAD-FMK-induced SIRS C57BL/6J mouse model assessed as decrease in serum IL-6 level at 2.5 to 10 mg/kg, po pre-administered via gavage for 1 hr followed by […] of Z-VAD-FMK stimulation for 15 mins and subsequent TNF-alpha stimulation for 45 mins and re-current […] of Z-VAD-FMK stimulation measured after 4 hrs post- TNF-alpha stimulation by ELISA; format: functional, organism-based; conditions: dose 2.5-10 mg/kg, time 360.0 min
[18] = biological target: T1, Receptor-interacting serine/threonine-protein kinase 1 (Homo sapiens); assay: Inhibition of RIPK1 phosphorylation in human HT-29 cells preincubated for 6 hrs followed by TSZ stimulation by Western blot analysis; format: cell-based; conditions: dose 1-10 nM
[19] = biological target: T1, Receptor-interacting serine/threonine-protein kinase 1 (Homo sapiens); assay: Inhibition of RIPK1 in human HT-29 cells assessed as decrease in RIPK3 phosphorylation preincubated for 6 hrs followed by TSZ stimulation by Western blot analysis; format: cell-based; conditions: dose 1-10 nM
[20] = biological target: T1, Receptor-interacting serine/threonine-protein kinase 1 (Homo sapiens); assay: Inhibition of RIPK1 in human HT-29 cells assessed as decrease in MLKL phosphorylation preincubated for 6 hrs followed by TSZ stimulation by Western blot analysis relative to control; format: cell-based; conditions: dose 1-10 nM

Row | SMILES | EC50 [1] [nM] | CC50 [2] [nM] | further results
1 | CN1C(=O)[C@@H](NC(=O)c2n[nH]c(Cc3ccccc3)n2)COc2ccc(-c3cncnc3)cc21 | 5.8 | > 100000 | –
2 | CN1C(=O)[C@@H](NC(=O)c2n[nH]c(Cc3ccccc3)n2)COc2ccc(-c3ccc(-c4ccccc4)cc3)cc21 | 32.9 | > 100000 | –
3 | Cc1ccc(-c2ccc3c(c2)N(C)C(=O)[C@@H](NC(=O)c2n[nH]c(Cc4ccccc4)n2)CO3)cc1 | 10.9 | > 100000 | –
4 | CN1C(=O)[C@@H](NC(=O)c2n[nH]c(Cc3ccccc3)n2)COc2ccc(-c3ccc(O)cc3)cc21 | 29.9 | > 100000 | –
5 | COc1ccccc1-c1ccc2c(c1)N(C)C(=O)[C@@H](NC(=O)c1n[nH]c(Cc3ccccc3)n1)CO2 | 10 | > 100000 | –
6 | CN1C(=O)[C@@H](NC(=O)c2n[nH]c(Cc3ccccc3)n2)COc2ccc(-c3ccc(F)cc3)cc21 | 9.8 | > 100000 | –
7 | Cc1ccccc1-c1ccc2c(c1)N(C)C(=O)[C@@H](NC(=O)c1n[nH]c(Cc3ccccc3)n1)CO2 | 82.7 | > 100000 | –
8 | CN1C(=O)[C@@H](NC(=O)c2n[nH]c(Cc3ccccc3)n2)COc2ccc(-c3ccccc3C#N)cc21 | 3 | > 100000 | –
9 | COc1ccc(-c2ccc3c(c2)N(C)C(=O)[C@@H](NC(=O)c2n[nH]c(Cc4ccccc4)n2)CO3)cc1 | 3.5 | > 100000 | –
10 | CN1C(=O)[C@@H](NC(=O)c2n[nH]c(Cc3ccccc3)n2)COc2ccc(-c3ccncc3)cc21 | 3.3 | > 100000 | –
11 | COc1cccc(-c2ccc3c(c2)N(C)C(=O)[C@@H](NC(=O)c2n[nH]c(Cc4ccccc4)n2)CO3)c1 | 3 | > 100000 | –
12 | CN1C(=O)[C@@H](NC(=O)c2n[nH]c(Cc3ccccc3)n2)COc2ccc(-c3ccccc3-c3ccccc3)cc21 | > 100 | > 100000 | –
13 | CN1C(=O)[C@@H](NC(=O)c2n[nH]c(Cc3ccccc3)n2)COc2ccc(-c3cccc(O)c3)cc21 | 11.7 | > 100000 | –
14 | CN1C(=O)[C@@H](NC(=O)c2n[nH]c(Cc3ccccc3)n2)COc2ccc(-c3cccc(F)c3)cc21 | 8.8 | > 100000 | –
15 | Cc1cccc(C)c1-c1ccc2c(c1)N(C)C(=O)[C@@H](NC(=O)c1n[nH]c(Cc3ccccc3)n1)CO2 | > 100 | > 100000 | –
16 | CN1C(=O)[C@@H](NC(=O)c2n[nH]c(Cc3ccccc3)n2)COc2ccc(-c3cccc(C#N)c3)cc21 | 8.3 | > 100000 | –
17 | CN1C(=O)[C@@H](NC(=O)c2n[nH]c(Cc3ccccc3)n2)COc2ccc(-c3ccoc3)cc21 | 3.4 | > 100000 | –
18 | CN1C(=O)[C@@H](NC(=O)c2n[nH]c(Cc3ccccc3)n2)COc2ccc(-c3ccccc3)cc21 | 8.3 | > 100000 | –
19 | CN1C(=O)[C@@H](NC(=O)c2n[nH]c(Cc3ccccc3)n2)COc2ccc(-c3ccc(C#N)cc3)cc21 | 1.7 | > 100000 | Activity [3]: Dose-Dependent Effect; Activity [4]: Dose-Dependent Effect; Activity [5]: Dose-Dependent Effect; Activity [6]: inactive; Activity [7]: inactive; inhibition [8]: 100%; inhibition [9]: 100%; inhibition [10]: 100%; inhibition [11]: Active; Activity [12]: Active; survival at 2.5 mg/kg [13]: 66%; survival at 5 mg/kg [14]: 91%; survival at 10 mg/kg [15]: 100%; Activity [16]: Active; Activity [17]: Active; inhibition [18]: Dose-Dependent Effect; inhibition [19]: Dose-Dependent Effect; inhibition [20]: Dose-Dependent Effect
20 | CN1C(=O)[C@@H](NC(=O)c2n[nH]c(Cc3ccccc3)n2)COc2ccc(-c3cccc(Cl)c3)cc21 | 56.8 | > 100000 | –
21 | CN1C(=O)[C@@H](NC(=O)c2n[nH]c(Cc3ccccc3)n2)COc2ccc(-c3ccc(Cl)cc3)cc21 | 12.5 | > 100000 | –
22 | CN1C(=O)[C@@H](NC(=O)c2n[nH]c(Cc3ccccc3)n2)COc2ccc(-c3ccco3)cc21 | 3.8 | > 100000 | –
23 | CN1C(=O)[C@@H](NC(=O)c2n[nH]c(Cc3ccccc3)n2)COc2ccc(-c3ccccc3F)cc21 | 7.6 | > 100000 | –
24 | Cc1cccc(-c2ccc3c(c2)N(C)C(=O)[C@@H](NC(=O)c2n[nH]c(Cc4ccccc4)n2)CO3)c1 | 14.1 | > 100000 | –
25 | CN1C(=O)[C@@H](NC(=O)c2n[nH]c(Cc3ccccc3)n2)COc2ccc(-c3cccc(-c4ccccc4)c3)cc21 | 27.3 | > 100000 | –
26 | CN1C(=O)[C@@H](NC(=O)c2n[nH]c(Cc3ccccc3)n2)COc2ccc(-c3ccccc3Cl)cc21 | 20.3 | > 100000 | –
27 | CN1C(=O)[C@@H](NC(=O)c2n[nH]c(Cc3ccccc3)n2)COc2ccc(-c3ccccc3O)cc21 | 60 | > 100000 | –
